Target: T1, TLR8 (Homo sapiens, UniProt Q9NR97)
T1 sequence (Q9NR97 27-1041): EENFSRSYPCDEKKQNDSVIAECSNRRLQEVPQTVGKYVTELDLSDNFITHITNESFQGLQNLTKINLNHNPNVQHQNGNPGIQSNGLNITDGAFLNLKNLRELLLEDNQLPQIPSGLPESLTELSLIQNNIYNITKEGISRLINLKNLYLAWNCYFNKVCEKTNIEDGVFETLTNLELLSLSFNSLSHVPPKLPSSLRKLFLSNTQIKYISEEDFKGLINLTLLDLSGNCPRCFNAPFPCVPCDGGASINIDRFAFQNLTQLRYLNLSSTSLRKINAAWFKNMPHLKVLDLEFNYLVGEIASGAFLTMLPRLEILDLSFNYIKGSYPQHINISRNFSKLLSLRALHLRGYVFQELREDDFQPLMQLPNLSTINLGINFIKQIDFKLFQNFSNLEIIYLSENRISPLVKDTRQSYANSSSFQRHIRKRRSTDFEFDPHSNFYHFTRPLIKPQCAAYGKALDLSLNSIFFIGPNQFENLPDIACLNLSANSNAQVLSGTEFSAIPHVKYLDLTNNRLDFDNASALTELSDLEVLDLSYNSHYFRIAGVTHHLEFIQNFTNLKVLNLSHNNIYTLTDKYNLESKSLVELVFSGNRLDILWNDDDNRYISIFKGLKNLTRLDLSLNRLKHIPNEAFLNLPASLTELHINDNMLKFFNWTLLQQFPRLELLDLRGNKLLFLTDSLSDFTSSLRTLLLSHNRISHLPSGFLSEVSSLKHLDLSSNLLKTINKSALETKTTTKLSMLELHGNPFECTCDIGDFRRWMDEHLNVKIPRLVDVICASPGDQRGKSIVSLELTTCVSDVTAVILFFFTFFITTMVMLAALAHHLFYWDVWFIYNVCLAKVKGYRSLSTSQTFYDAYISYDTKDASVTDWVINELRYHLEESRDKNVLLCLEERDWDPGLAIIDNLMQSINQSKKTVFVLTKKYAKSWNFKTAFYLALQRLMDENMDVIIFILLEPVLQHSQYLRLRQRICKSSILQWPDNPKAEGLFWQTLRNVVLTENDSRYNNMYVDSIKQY
Test: HEK-TLR8 NF-κB-luciferase reporter, R848 or Motolimod stimulation (potentiation or inhibition)
Type: cell-based
Parameters: expressed in transfected cells; host or cells: 293XLhTLR8 (HEK293)
Settings: averaged NF-κB-Luciferase relative to R848 condition (fold increase); for TLR8 100 nM: MOE-modified ASO at 100 nM; for TLR8 500 nM: MOE-modified ASO at 500 nM

Sequence: GGAGATTTCAGAGCAGCTTC (antisense; 2'-MOE modified, pattern not given here) [EGFR-4885 MOE]
- TLR8 100 nM: 3.122
- TLR8 500 nM: 4.308

Sequence: GGAGCTTCGAGGCCCCAGGC (MOE modified, pattern not given here) [MB21D1-616 MOE]
- TLR8 100 nM: 0.760
- TLR8 500 nM: 0.380

Sequence: GGAGGTCTTGGCTTCGTGGA (antisense; 2'-MOE modified, pattern not given here) [MB21D1-524 MOE]
- TLR8 100 nM: 3.976
- TLR8 500 nM: 5.288

Sequence: GGCATCCACCACGTCGTCCA (antisense; 2'-MOE modified, pattern not given here) [EGFR-3266 MOE]
- TLR8 100 nM: 1.619
- TLR8 500 nM: 1.566

Sequence: GGGAAAGGTTATGCAAGGTC (antisense; 2'-MOE modified, pattern not given here) [CTNN2B-916 MOE]
- TLR8 100 nM: 3.117
- TLR8 500 nM: 3.500

Sequence: GGTCCATACCCAAGGCATCC (antisense; 2'-MOE modified, pattern not given here) [CTNN2B-2446 MOE]
- TLR8 100 nM: 1.901
- TLR8 500 nM: 2.107

Sequence: GGTGGTCCACAACCCCTTTC (antisense; 2'-MOE modified, pattern not given here) [MB21D1-697 MOE]
- TLR8 100 nM: 2.121
- TLR8 500 nM: 3.700

Sequence: GGTGGTGGCCACCCATCTCA (antisense; 2'-MOE modified, pattern not given here) [CTNN2B-2479 MOE]
- TLR8 100 nM: 1.491
- TLR8 500 nM: 0.874

Sequence: GGTGTCCTTGCACGTGGCTT (antisense; 2'-MOE modified, pattern not given here) [EGFR-1016 MOE]
- TLR8 100 nM: 1.532
- TLR8 500 nM: 1.019

Sequence: GTCCACATCCTGTGGCTCGT (antisense; 2'-MOE modified, pattern not given here) [CAMSAP1-2906 MOE]
- TLR8 100 nM: 0.919
- TLR8 500 nM: 0.493

Sequence: GTCCTTGCACGTGGCTTCGT (antisense; 2'-MOE modified, pattern not given here) [EGFR-1013 MOE]
- TLR8 100 nM: 1.900
- TLR8 500 nM: 1.593

Sequence: GTCTTGGCTTCGTGGAGCAG (antisense; 2'-MOE modified, pattern not given here) [MB21D1-520 MOE]
- TLR8 100 nM: 2.383
- TLR8 500 nM: 3.536

Sequence: GTGTCCTTGCACGTGGCTTC (antisense; 2'-MOE modified, pattern not given here) [EGFR-1015 MOE]
- TLR8 100 nM: 1.383
- TLR8 500 nM: 1.274

Sequence: GTGTCTTCATCGGCCCTGCC (antisense; 2'-MOE modified, pattern not given here) [CAMSAP1-2113 MOE]
- TLR8 100 nM: 1.247
- TLR8 500 nM: 1.093

Sequence: TAGGCACTTTGCCTCCTTCT (antisense; 2'-MOE modified, pattern not given here) [EGFR-2859 MOE]
- TLR8 100 nM: 0.773
- TLR8 500 nM: 0.884

Sequence: TAGTCAAGGGCATATCCTAC (antisense; 2'-MOE modified, pattern not given here) [HPRT-732 MOE]
- TLR8 100 nM: 1.457
- TLR8 500 nM: 2.087

Sequence: TCAAAGGACTGAGGAAAGGG (antisense; 2'-MOE modified, pattern not given here) [CAMSAP1-6273 MOE]
- TLR8 100 nM: 3.896
- TLR8 500 nM: 3.406

Sequence: TCCAACACTTCGTGGGGTCC (antisense; 2'-MOE modified, pattern not given here) [HPRT-667 MOE]
- TLR8 100 nM: 1.142
- TLR8 500 nM: 1.432

Sequence: TCGCACTTCAGTCTGAGCAG (antisense; 2'-MOE modified, pattern not given here) [MB21D1-719 MOE]
- TLR8 100 nM: 1.697
- TLR8 500 nM: 2.158

Sequence: TGTCCTTGCACGTGGCTTCG (antisense; 2'-MOE modified, pattern not given here) [EGFR-1014 MOE]
- TLR8 100 nM: 1.187
- TLR8 500 nM: 1.433

Sequence: TGTCTTCATCGGCCCTGCCT (antisense; 2'-MOE modified, pattern not given here) [CAMSAP1-2112 MOE]
- TLR8 100 nM: 1.331
- TLR8 500 nM: 1.178

Sequence: TGTGATGGCCTCCCATCTCC (antisense; 2'-MOE modified, pattern not given here) [HPRT-332 MOE]
- TLR8 100 nM: 0.940
- TLR8 500 nM: 0.938

Sequence: TTCTGCAGCTTCCTTGTCCT (antisense; 2'-MOE modified, pattern not given here) [CTNN2B-2136 MOE]
- TLR8 100 nM: 2.049
- TLR8 500 nM: 2.408

Sequence: TTGCACACTTCGTACCCAAA (antisense; 2'-MOE modified, pattern not given here) [CAMSAP1-4915 MOE]
- TLR8 100 nM: 1.555
- TLR8 500 nM: 1.972

Sequence: TTGCCATGCTGGCTCGGACT (antisense; 2'-MOE modified, pattern not given here) [CAMSAP1-2584 MOE]
- TLR8 100 nM: 0.881
- TLR8 500 nM: 0.572

Sequence: TTGGCTCGGCTTGCCTACTT (antisense; 2'-MOE modified, pattern not given here) [CAMSAP1-5594 MOE]
- TLR8 100 nM: 1.096
- TLR8 500 nM: 0.813
